Experimental data reported in US20240360177A1, “PEPTIDES WITH ANTIMICROBIAL ACTIVITIES” (priority 2021, published 2024).
Converted amounts (≈) assume the structure as drawn. Non-standard residues stand in square brackets, D forms with d. Residues, ends and D or L forms follow the SMILES beside them. Tic = O=C(O)[C@@H]1Cc2ccccc2CN1

Legend:
C. krusei = conditions: 24 h
C. neoformans = conditions: 72 h
C. glabrata = conditions: 24 h
Fusarium spp. = conditions: 48 h
Scedosporium spp. = conditions: 72 h
C. parapsilosis = conditions: 24 h
C. albicans = conditions: 24 h
C. gattii = conditions: 72 h
C. tropicalis = conditions: 24 h
C. dubliniensis = conditions: 24 h
C. auris = conditions: 24 h
in vitro = conditions: human, EC50 cytotoxicity in HepG2, intracellular ATP assay

Row | Structure (SMILES) | MIC C. krusei (C. krusei) [mg/L] | MIC C. neoformans (C. neoformans) [mg/L] | MIC C. glabrata (C. glabrata) [mg/L] | MIC Range Fusarium spp. (Fusarium spp.) [mg/L] | MIC Range Scedosporium spp. (Scedosporium spp.) [mg/L] | MIC Range Lomentospora prolificans (Lomentospora prolificans) [mg/L] | MIC C. parapsilosis (C. parapsilosis) [mg/L] | MIC C. albicans (C. albicans) [mg/L] | MIC C. gattii (C. gattii) [mg/L] | MIC C. tropicalis (C. tropicalis) [mg/L] | MIC C. dubliniensis (C. dubliniensis) [mg/L] | MIC C. auris (C. auris) [mg/L] | EC50 (in vitro) [mg/L] | Activity at 24 h MIC50 against Candida spp. (Candida spp.) [mg/L] | Activity at 24 h MIC90 against Candida spp. (Candida spp.) [mg/L] | Activity at 48 h MIC50 against Candida spp. (Candida spp.) [mg/L] | Activity at 48 h MIC90 against Candida spp. (Candida spp.) [mg/L]
1 | CC(=O)N[C@H](CCCNC(=N)N)C(=O)N[C@@H](CCCNC(=N)N)C(=O)N[C@H](CCCNC(=N)N)C(=O)N1CCC[C@H]1C(=O)N[C@H](CCCNC(=N)N)C(=O)N[C@@H](CCCNC(=N)N)C(=O)N[C@H](CCCNC(=N)N)C(=O)N1CCC[C@H]1C(=O)N[C@H](CCCNC(=N)N)C(=O)N[C@@H](CCCNC(=N)N)C(=O)N[C@H](CCCNC(=N)N)C(=O)N[C@@H](CCCNC(=N)N)C(=O)N1CCC[C@H]1C(=O)N[C@H](CCCNC(=N)N)C(=O)N[C@@H](CCCNC(=N)N)C(=O)N[C@H](CCCNC(=N)N)C(=O)N[C@@H](CCCNC(=N)N)C(N)=O [SEQ ID NO: 55, CH3CONH-rRr-P-rRr-P-rRrR-P-rRrR-NH2] (Ac-[dR]R[dR]P[dR]R[dR]P[dR]R[dR]RP[dR]R[dR]R-NH2) | 2 (≈ 0.788 µM) | 0.5 (≈ 0.197 µM) | 0.5 (≈ 0.197 µM) | 0.25 to 1 | 0.5 to 1 | 1 (≈ 0.394 µM) | 0.25 (≈ 0.0985 µM) | 1 (≈ 0.394 µM) | 1 (≈ 0.394 µM) | 0.5 (≈ 0.197 µM) | 0.5 (≈ 0.197 µM) | 1 (≈ 0.394 µM) |  |  |  |  | 
2 | N=C(N)NCCC[C@@H](N)C(=O)N[C@@H](CCCNC(=N)N)C(=O)N[C@H](CCCNC(=N)N)C(=O)N[C@@H](CCCNC(=N)N)C(=O)N1CCC[C@H]1C(=O)N[C@H](CCCNC(=N)N)C(=O)N[C@@H](CCCNC(=N)N)C(=O)N[C@H](CCCNC(=N)N)C(=O)N[C@@H](CCCNC(=N)N)C(=O)N1CCC[C@H]1C(=O)N[C@H](CCCNC(=N)N)C(=O)N[C@@H](CCCNC(=N)N)C(=O)N[C@H](CCCNC(=N)N)C(=O)N1CCC[C@H]1C(=O)N[C@H](CCCNC(=N)N)C(=O)N[C@@H](CCCNC(=N)N)C(=O)N[C@H](CCCNC(=N)N)C(N)=O [SEQ ID NO: 60, rRrR-P-rRrR-P-rRr-P-rRr-NH2] (H-[dR]R[dR]RP[dR]R[dR]RP[dR]R[dR]P[dR]R[dR]-NH2) | 0.5 (≈ 0.2 µM) |  | 0.25 (≈ 0.1 µM) |  |  |  | 0.25 (≈ 0.1 µM) | 0.25 (≈ 0.1 µM) |  | 0.25 (≈ 0.1 µM) | 0.25 (≈ 0.1 µM) | 0.5 (≈ 0.2 µM) | > 300 |  |  |  | 
3 | N=C(N)NCCC[C@@H](N)C(=O)N[C@@H](CCCNC(=N)N)C(=O)N[C@H](CCCNC(=N)N)C(=O)N[C@@H](CCCNC(=N)N)C(=O)N[C@H](CCCNC(=N)N)C(=O)N[C@@H](CCCNC(=N)N)C(=O)N[C@H](CCCNC(=N)N)C(=O)N1CCC[C@H]1C(=O)N[C@H](CCCNC(=N)N)C(=O)N[C@@H](CCCNC(=N)N)C(=O)N[C@H](CCCNC(=N)N)C(=O)N[C@@H](CCCNC(=N)N)C(=O)N[C@H](CCCNC(=N)N)C(=O)N[C@@H](CCCNC(=N)N)C(=O)N[C@H](CCCNC(=N)N)C(N)=O [SEQ ID NO: 62, rRrRrRr-P-rRrRrRr-NH2] (H-[dR]R[dR]R[dR]R[dR]P[dR]R[dR]R[dR]R[dR]-NH2) | 0.5 (≈ 0.217 µM) |  | 0.5 (≈ 0.217 µM) |  |  |  | 0.25 (≈ 0.109 µM) | 0.25 (≈ 0.109 µM) |  | 0.25 (≈ 0.109 µM) | 0.25 (≈ 0.109 µM) | 2 (≈ 0.869 µM) | > 300 | 0.5 | 4 | 0.5 | 32
4 | N=C(N)NCCC[C@H](NC(=O)[C@@H](CCCNC(=N)N)NC(=O)[C@H](CCCNC(=N)N)NC(=O)[C@@H](CCCNC(=N)N)NC(=O)[C@@H]1CCCN1C(=O)[C@H](CCCNC(=N)N)NC(=O)[C@@H](CCCNC(=N)N)NC(=O)[C@H](CCCNC(=N)N)NC(=O)[C@@H](CCCNC(=N)N)NC(=O)[C@@H]1CCCN1C(=O)[C@@H](CCCNC(=N)N)NC(=O)[C@H](CCCNC(=N)N)NC(=O)[C@@H](CCCNC(=N)N)NC(=O)[C@@H]1CCCN1C(=O)[C@@H](CCCNC(=N)N)NC(=O)[C@H](CCCNC(=N)N)NC(=O)[C@@H](CCCNC(=N)N)NC(=O)[C@@H](N)CCCNC(=N)N)C(N)=O [SEQ ID NO: 63, RrRr-P-rRr-P-rRrR-P-rRrR-NH2] (H-R[dR]R[dR]P[dR]R[dR]P[dR]R[dR]RP[dR]R[dR]R-NH2) | 0.5 (≈ 0.189 µM) |  | 0.5 (≈ 0.189 µM) |  |  |  | 0.5 (≈ 0.189 µM) | 0.5 (≈ 0.189 µM) |  | 0.5 (≈ 0.189 µM) | 0.5 (≈ 0.189 µM) | 0.5 (≈ 0.189 µM) | > 300 | 0.5 | 1 | 1 | 2
5 | N=C(N)NCCC[C@H](NC(=O)[C@@H](CCCNC(=N)N)NC(=O)[C@H](CCCNC(=N)N)NC(=O)[C@@H](CCCNC(=N)N)NC(=O)[C@@H]1CCCN1C(=O)[C@H](CCCNC(=N)N)NC(=O)[C@@H](CCCNC(=N)N)NC(=O)[C@H](CCCNC(=N)N)NC(=O)[C@@H](CCCNC(=N)N)NC(=O)[C@@H]1CCCN1C(=O)[C@H](CCCNC(=N)N)NC(=O)[C@@H](CCCNC(=N)N)NC(=O)[C@H](CCCNC(=N)N)NC(=O)[C@@H](CCCNC(=N)N)NC(=O)[C@@H]1CCCN1C(=O)[C@@H](CCCNC(=N)N)NC(=O)[C@H](CCCNC(=N)N)NC(=O)[C@@H](CCCNC(=N)N)NC(=O)[C@@H](N)CCCNC(=N)N)C(N)=O [SEQ ID NO: 64, RrRr-P-rRrR-P-rRrR-P-rRrR-NH2] (H-R[dR]R[dR]P[dR]R[dR]RP[dR]R[dR]RP[dR]R[dR]R-NH2) | 0.5 (≈ 0.178 µM) |  | 0.5 (≈ 0.178 µM) |  |  |  | 0.5 (≈ 0.178 µM) | 0.5 (≈ 0.178 µM) |  | 0.5 (≈ 0.178 µM) | 0.5 (≈ 0.178 µM) | 0.5 (≈ 0.178 µM) | > 300 | 0.5 | 1 | 0.5 | 2
6 | N=C(N)NCCC[C@H](NC(=O)[C@@H](CCCNC(=N)N)NC(=O)[C@@H](N)CCCNC(=N)N)C(=O)N[C@H](CCCNC(=N)N)C(=O)N1CCC[C@H]1C(=O)N[C@H](CCCNC(=N)N)C(=O)N[C@@H](CCCNC(=N)N)C(=O)N[C@H](CCCNC(=N)N)C(=O)N1CCC[C@H]1C(=O)N[C@@H](CCCNC(=N)N)C(=O)N[C@H](CCCNC(=N)N)C(=O)N[C@@H](CCCNC(=N)N)C(=O)N1CCC[C@H]1C(=O)N[C@H](CCCNC(=N)N)C(=O)N[C@@H](CCCNC(=N)N)C(=O)N[C@H](CCCNC(=N)N)C(N)=O [SEQ ID NO: 65, RrRr-P-rRr-P-RrR-P-rRr-NH2] (H-R[dR]R[dR]P[dR]R[dR]PR[dR]RP[dR]R[dR]-NH2) | 0.5 (≈ 0.214 µM) |  | 0.5 (≈ 0.214 µM) |  |  |  | 0.25 (≈ 0.107 µM) | 0.25 (≈ 0.107 µM) |  | 0.5 (≈ 0.214 µM) | 0.5 (≈ 0.214 µM) | 0.5 (≈ 0.214 µM) | > 300 | 0.5 | 2 | 0.5 | 32
7 | N=C(N)NCCC[C@@H](N)C(=O)N[C@@H](CCCNC(=N)N)C(=O)N[C@H](CCCNC(=N)N)C(=O)N1Cc2ccccc2C[C@H]1C(=O)N[C@H](CCCNC(=N)N)C(=O)N[C@@H](CCCNC(=N)N)C(=O)N[C@H](CCCNC(=N)N)C(=O)N1Cc2ccccc2C[C@H]1C(=O)N[C@H](CCCNC(=N)N)C(=O)N[C@@H](CCCNC(=N)N)C(=O)N[C@H](CCCNC(=N)N)C(=O)N[C@@H](CCCNC(=N)N)C(=O)N1Cc2ccccc2C[C@H]1C(=O)N[C@H](CCCNC(=N)N)C(=O)N[C@@H](CCCNC(=N)N)C(=O)N[C@H](CCCNC(=N)N)C(=O)N[C@@H](CCCNC(=N)N)C(N)=O [SEQ ID NO: 76, rRr-(Tic)-rRr-(Tic)-rRrR-(Tic)-rRrR-NH2] (H-[dR]R[dR][Tic][dR]R[dR][Tic][dR]R[dR]R[Tic][dR]R[dR]R-NH2) | 1 (≈ 0.373 µM) |  | 0.5 (≈ 0.186 µM) |  |  |  | 0.5 (≈ 0.186 µM) | 0.5 (≈ 0.186 µM) |  | 0.5 (≈ 0.186 µM) | 0.5 (≈ 0.186 µM) | 0.5 (≈ 0.186 µM) | 139 (≈ 51.7 µM) |  |  |  | 
